# Data as given in patent US20260306460A1, “COMPOSITION FOR REMOVING AND INHIBITING SENESCENT CELLS, AND USES THEREOF” (LIFECEUTIX CO., LTD., priority 2023, published 2026).
# Columns and labels:
# SAOS-2 = test: Suppression of doxorubicin-senescent SAOS-2 tumors in nude mice, Example 19; assay type: in vivo, mouse; settings: after DOX 10 mg/kg ip; 21 days daily; LX-5701 360 mg/kg po, LX-2101 20 mg/kg ip, LX-2102 10 mg/kg ip; DOX repeated as control
# Method: Seven-week-old male BALB/c nude mice (KRIBB Laboratory Animal Resource Center) were acclimated to the experimental environment for one week, after which they were randomly assigned to experimental and control groups. Evaluation was performed using the same method as in Example 2-1 of WO2023-085787 A1. Cultured human osteosarcoma cell lines, SAOS-2 (10^6 cells), were mixed in phosphate-buffered saline (PBS) and administered subcutaneously to anesthetized mice using 2% isoflurane (Sigma). When the tumors reached approximately […], doxorubicin (10 mg/kg) was mixed in a 1:1 solution of distilled water and PBS (pH 7.2) and administered intraperitoneally to induce tumor senescence. After 10 days, LX-5701 mixed in PBS at a concentration of 360 mg/kg was administered orally daily for 21 days, or LX-2101 mixed in PBS solution with 5% DMSO at a concentration of 20 mg/kg or LX-2102 mixed in PBS with 5% DMSO at a concentration of 10 mg/kg was administered intraperitoneally daily for 21 days, and then the tumor size was measured. The control group was repeatedly administered a solution mixed with doxorubicin, and then the tumor size was measured.
# [1] = system: naturally aged C57BL6J mice; test: SA-β-gal staining in organs of naturally aged mice, Example 21-3, Table 19; assay type: in vivo, mouse; settings: staining area, untreated aged = 100
# Method: (§1) 22-month-old female C57BL6J mice (KRIBB Laboratory Animal Resource Center) were acclimated to the experimental environment for one week, after which the aged mice were randomly assigned to experimental and control groups. Eight-week-old, non-aged mice served as controls. LX-403 was mixed in a 10% ethanol solution of PEG400 and administered orally at a concentration of 25 mg/kg daily for 21 days, or administered to the skin, joints, or eyes at a concentration of 1 μM. LX-1801 was mixed in distilled water with 4% DMSO, 30% PEG300, and 5% Tween80 and administered to the skin, joints, or eyes at a concentration of 0.4 μM daily for 21 days. LX-2001 was mixed in PBS and administered to the skin, joints, or eyes at a concentration of […] daily for 21 days. LX-2002 was mixed in distilled water with 4% DMSO, 30% PEG300, and 5% Tween80 and administered to the skin, joints, or eyes at a concentration of 2 μM daily for 21 days. […] LX-2005 was mixed in distilled water with 4% DMSO, 30% PEG300, and 5% Tween80 and administered to the skin, joints, or eyes at a concentration of 90 μM daily for 21 days. LX-2007 was mixed in distilled water with 4% DMSO, 30% PEG300, and 5% Tween80 and administered to the skin, joints, or eyes at a concentration of 90 μM daily for 21 days. […] LX-3002 was mixed in distilled water with 4% DMSO, 30% PEG300, and 5% Tween80 and administered orally at a concentration of 10 mg/kg daily for 21 days. […] LX-5411 was mixed in 5% PBS and administered orally at a concentration of 10 mg/kg daily for 21 days or administered to the skin, joints, or eyes at a concentration of 3 μM. LX-5701 was mixed in PBS and administered orally at a concentration of 360 mg/kg daily for 21 days. LX-6807 was mixed in saline and administered intraperitoneally at a concentration of 1 mg/kg daily for 21 days. LX-2101 or LX-2102 was mixed in PBS solution with 5% DMSO and administered intraperitoneally at a concentration of 20 mg/kg or 10 mg/kg, respectively, daily for 21 days. The control group received only the solution in the same volume. After the end of drug administration, the methods described in each example below were performed.
# Mice were sacrificed, tissue sections were prepared from each organ, and stained for the senescence-associated marker (SA-β-gal) using the same method as in Example 7-3 of WO2023-085787 A1.
# [2] = system: naturally aged C57BL6J mice; test: SASP mRNA (MMP3, IL1B, MMP12, IL6, MMP13) in naturally aged mice, Example 21-6, Table 22; assay type: in vivo, mouse; settings: untreated aged = 100%
# Method: as §1
# Using cDNA synthesized in the same manner as Example 7-2 of WO2023-085787 A1, qRT-PCR was performed and analyzed for the senescence-associated secretory factors (SASPs) MMP3, IL1B, MMP12, IL6, and MMP13. […] The mRNA levels of each factor after aging induction were calculated as 100% and compared with the mRNA levels of each factor after test compound treatment.
# [3] = system: HMGN1 secreted from senescent human cells; test: HMGN1 secretion (ELISA) from doxorubicin-induced senescent human cells, Example 11; assay type: cell-based; settings: senescent untreated = 100%; 30 μM; 90 μM for LX-305, 1302, 1603, 2005, 2702, 2901, 3106; 270 μM for LX-1103, 2007
# senescent A549 cells = test: Viability of senescent A549 cancer cells (CellTiter-Glo), Example 12; assay type: cell-based, human; settings: 0 μM = 100
# Method: Cells were treated with doxorubicin or control (DMSO) and cultured.
# Cancer cells in which aging was induced by treatment with doxorubicin were treated with the test compound at designated concentrations and measured using the CellTiter-Glo Luminescent Cell Viability Assay (Promega).
Compound,Tumor Diameter (SAOS-2),"SA-β-gal (%), Kidney [1]","SA-β-gal (%), Liver [1]","SA-β-gal (%), Lung [1]","SA-β-gal (%), Skin [1]","SA-β-gal (%), eWAT [1]","MMP13 mRNA (%), Eye [2] [%]","IL1β mRNA (%), Kidney [2] [%]","MMP13 mRNA (%), Knee joint [2] [%]","MMP3 mRNA (%), Liver [2] [%]","MMP12 mRNA (%), Lung [2] [%]","IL6 mRNA (%), Muscle [2] [%]","MMP3 mRNA (%), Skin [2] [%]","MMP12 mRNA (%), Skin [2] [%]","MMP13 mRNA (%), Skin [2] [%]",HMGN1 [3] [%],Survival (senescent A549 cells; 1.1 μM) [%],Survival (senescent A549 cells; 10 μM) [%],Survival (senescent A549 cells; […]) [%]
"CC1(C)CC[C@]2(NC(=O)C(C)(F)F)CC[C@]3(C)[C@H](C(=O)C=C4[C@@]5(C)C=C(C#N)C(=O)C(C)(C)[C@@H]5CC[C@]43C)[C@@H]2C1 [LX-2101, Omaveloxolone]",6.8 (±1.4) mm,51 (±12.5) %,71 (±5.5) %,72 (±8.8) %,75 (±11.8) %,32 (±16.2) %,35,73,46,45,58,69,81,82,38,,,,
O=C1C2CCN(CC2)C1CNC(=O)C(F)(F)F (centres unmarked) [LX-5701],6.1 (±4.9) mm,77 (±8.1) %,65 (±4.8) %,62 (±9.6) %,76 (±6.9) %,48 (±3.9) %,71,58,61,59,70,38,79,71,62,,,,
Tocofersolan [LX-3001],,,,,,,,,,,,,,,,301,101.6,22.6,95.6
S=C(N/N=C1\CCCc2cccnc21)N1CCN(c2ccccn2)CC1 [LX-801],,,,,,,,,,,,,,,,265,78.1,12.7,58.5
"COC(=O)[C@]12CCC(C)(C)C[C@H]1[C@H]1C(=O)C=C3[C@@]4(C)C=C(C#N)C(=O)C(C)(C)[C@@H]4CC[C@@]3(C)[C@]1(C)CC2 [LX-2102, Bardoxolone methyl]",7.1 (±2.6) mm,62 (±8.6) %,68 (±6.8) %,59 (±14.6) %,77 (±5.4) %,49 (±9.7) %,71,68,77,56,66,81,83,78,68,,,,
